Test results published in the supplement of paper PMC10307832.

Experiments:
Test in all cases: relative viability (nuclei count vs DMSO), 5 days (fraction); higher = more cells survive
Seliciclib + Decitabine = compound: CC[C@H](CO)Nc1nc(NCc2ccccc2)c2ncn(C(C)C)c2n1 [Seliciclib] + Nc1ncn([C@H]2C[C@H](O)[C@@H](CO)O2)c(=O)n1 [Decitabine] (partner 2 µM)
How it was run: (§1)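 A single step with final 0.05% Triton X-100, 1% formaldehyde and 1 ug/ml Hoechst fixed the cells and stained nuclei 5 days after treatment. Lung cancer cell lines in 1536-well plates had been treated by pin tool the day after seeding with one drug alone or a fixed anchor-drug dose plus five library-drug doses (not always all listed) in √10 steps, and nuclei were counted on 4× images. Relative viability is the ratio of nuclei in treated wells to nuclei in vehicle wells, taken as the median of duplicate plates.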

Seliciclib + AZD7762 = compound: CC[C@H](CO)Nc1nc(NCc2ccccc2)c2ncn(C(C)C)c2n1 [Seliciclib] + NC(=O)Nc1cc(-c2cccc(F)c2)sc1C(=O)N[C@H]1CCCNC1 [AZD7762] (partner 0.2 µM)
How it was run: as §1

Seliciclib + Bortezomib = compound: CC[C@H](CO)Nc1nc(NCc2ccccc2)c2ncn(C(C)C)c2n1 [Seliciclib] + CC(C)C[C@H](NC(=O)[C@H](Cc1ccccc1)NC(=O)c1cnccn1)B(O)O [Bortezomib] (partner 0.002 µM)
How it was run: as §1

Seliciclib + Lapatinib = compound: CC[C@H](CO)Nc1nc(NCc2ccccc2)c2ncn(C(C)C)c2n1 [Seliciclib] + CS(=O)(=O)CCNCc1ccc(-c2ccc3ncnc(Nc4ccc(OCc5cccc(F)c5)c(Cl)c4)c3c2)o1 [Lapatinib] (partner 2 µM)
How it was run: as §1

Row | Cell Line | relative viability (Seliciclib + Decitabine; first compound 0.08 µM) | relative viability (Seliciclib + Decitabine; first compound 0.253 µM) | relative viability (Seliciclib + Decitabine; first compound 0.8 µM) | relative viability (Seliciclib + Decitabine; first compound 2.53 µM) | relative viability (Seliciclib + Decitabine; first compound 8 µM) | relative viability (Seliciclib + AZD7762; first compound 0.08 µM) | relative viability (Seliciclib + AZD7762; first compound 0.253 µM) | relative viability (Seliciclib + AZD7762; first compound 0.8 µM) | relative viability (Seliciclib + AZD7762; first compound 2.53 µM) | relative viability (Seliciclib + AZD7762; first compound 8 µM) | relative viability (Seliciclib + Bortezomib; first compound 0.08 µM) | relative viability (Seliciclib + Bortezomib; first compound 0.253 µM) | relative viability (Seliciclib + Bortezomib; first compound 0.8 µM) | relative viability (Seliciclib + Bortezomib; first compound 2.53 µM) | relative viability (Seliciclib + Bortezomib; first compound 8 µM) | relative viability (Seliciclib + Lapatinib; first compound 0.08 µM) | relative viability (Seliciclib + Lapatinib; first compound 0.253 µM) | relative viability (Seliciclib + Lapatinib; first compound 0.8 µM) | relative viability (Seliciclib + Lapatinib; first compound 2.53 µM) | relative viability (Seliciclib + Lapatinib; first compound 8 µM)
1 | NCI-H727 | 0.874 | 0.88 | 0.82 | 0.441 | 0.861 | 0.611 | 0.731 | 0.567 | 0.522 | 0.787 | 0.759 | 0.774 | 0.578 | 0.585 | 0.716 | 0.936 | 0.75 | 0.556 | 0.518 | 0.634
2 | NCI-H838 | 0.457 | 0.508 | 0.437 | 0.411 | 0.381 | 0.922 | 0.966 | 0.877 | 0.939 | 0.861 | 0.82 | 0.879 | 0.762 | 0.727 | 0.487 | 0.967 | 0.92 | 0.926 | 0.868 | 0.362
3 | NCI-H1355 | 0.35 | 0.334 | 0.356 | 0.374 | 0.38 | 0.805 | 0.623 | 0.799 | 0.832 | 0.975 | 1.16 | 1.1 | 1.23 | 1.03 | 1.11 | 0.961 | 0.834 | 0.94 | 0.927 | 0.929
4 | NCI-H1437 | 0.557 | 0.563 | 0.566 | 0.477 | 0.56 | 1.06 | 1.19 | 1.17 | 0.999 | 1.08 | 0.436 | 0.524 | 0.47 | 0.422 | 0.39 | 0.824 | 0.949 | 0.882 | 0.777 | 0.618
5 | NCI-H1651 | 0.553 | 0.6 | 0.65 | 0.51 | 0.592 | 0.474 | 0.464 | 0.488 | 0.504 | 0.673 | 1 | 0.925 | 0.897 | 0.836 | 0.947 | 0.807 | 0.875 | 0.883 | 0.864 | 0.702
6 | NCI-H1666 | 0.641 | 0.712 | 0.797 | 0.58 | 0.664 | 0.862 | 0.959 | 0.936 | 0.793 | 0.818 | 0.799 | 0.739 | 0.809 | 0.66 | 0.568 | 0.722 | 0.8 | 0.48 | 0.474 | 0.476
7 | NCI-H1734 | 0.503 | 0.405 | 0.509 | 0.518 | 0.496 | 0.533 | 0.43 | 0.584 | 0.561 | 0.642 | 0.873 | 0.833 | 0.882 | 1.08 | 0.824 | 1.12 | 0.974 | 1.08 | 0.955 | 0.945
8 | NCI-H1755 | 0.71 | 0.644 | 0.719 | 0.759 | 0.721 | 0.447 | 0.408 | 0.481 | 0.488 | 0.617 | 0.928 | 0.961 | 0.896 | 0.973 | 0.913 | 1.02 | 1.02 | 1.02 | 0.963 | 1.03
9 | NCI-H1792 | 0.45 | 0.506 | 0.608 |  | 0.556 | 0.897 | 0.57 | 0.567 |  | 0.736 | 1.03 | 0.96 | 0.898 | 0.904 | 0.884 | 0.947 | 0.889 | 0.855 | 0.776 | 0.846
10 | NCI-H1915 | 0.252 | 0.264 | 0.277 | 0.243 | 0.255 | 0.714 | 0.591 | 0.826 | 0.817 | 0.717 | 0.961 | 1.05 | 0.951 | 0.987 | 0.743 | 0.951 | 1.13 | 1.02 | 0.936 | 0.853
11 | NCI-H1975 | 0.394 | 0.349 | 0.365 | 0.645 | 0.332 | 0.684 | 0.628 | 0.741 | 0.613 | 0.758 | 0.372 | 0.348 | 0.345 | 0.322 | 0.218 | 0.867 | 0.834 | 0.868 | 0.759 | 0.716
